Reference: patent US20250339569A1, “CARBONIC ANHYDRASE IX LIGANDS” (priority 2021, published 2025)
Starred links: 1 amine or outer side, 2 acyl side, 3 side chain; linkers in the order of their positions; H or OH if unused. Positions of bridges follow the written chain, without caps; N, C: chain ends. Non-standard residues stand in square brackets, D forms with d. Residues, ends and D or L forms follow the SMILES beside them. Groups on a side chain read outwards from the residue. *: point of attachment. Phe(3-NHCO(CH2)3SO2NH2) = N[C@@H](Cc1cccc(NC(=O)CCCS(N)(=O)=O)c1)C(=O)O; X57 = O=C(Cn1ccccc1=O)Nc1cccc(C[C@H](N[*:1])C(=O)[*:2])c1; DOTA = O=C(O)CN1CCN(CC(=O)O)CCN(CC(=O)*)CCN(CC(=O)O)CC1; Cyclopropanecarbonyl(1-CN) = N#CC1(C(=O)*)CC1; X7 = O=C([C@H](Cc1cccc(N[*:3])c1)N[*:1])[*:2]; Phe(4-NH2) = Nc1ccc(C[C@H](N)C(=O)O)cc1; X55 = O=C1Nc2ccc(C(=O)*)cc2S(=O)(=O)N1; mXylylene = c1cc(C[*:1])cc(C[*:2])c1; X49 = N#Cc1ccc(N2CCCN(*)CC2)c(F)c1; X36 = NS(=O)(=O)Cc1ccc(C(=O)*)cc1; X2 = O=C(CN1CCC(N[*:1])CC1)[*:2]; X60 = NC(=O)c1ccc(N2CC(N*)C2)cc1; tBuAla = CC(C)(C)C[C@H](N)C(=O)O; X1 = O=C(CN1CCN([*:1])CC1)[*:2]; X53 = Cc1cc2cc(CN*)ccc2[nH]c1=O; 4Amb = NCc1ccc(C(=O)O)cc1; Isovaleryl = CC(C)CC(=O)*; Fluoroacetyl = O=C(CF)*; X67 = CS(=O)(=O)CC(=O)*; Propionyl = CCC(=O)*

These molecules were tested against T1, CAIX-expressing human HT-29 colorectal cancer cells (Homo sapiens, UniProt Q16790) (assay: FACS binding assay (IC50 determination, competition with tracer 3BP-2776 or 3BP-4149)). Settings: not given.
T1 construct: CAIX-expressing human HT-29 colorectal cancer cells; host or cells: HT-29 human colorectal cancer cells
Outline: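 HT-29 cells in FACS buffer (PBS, 1% FCS) at 500.000 cells/ml were exposed to compounds competing with a labelled tracer, with biotinylated compounds detected by 1 μg/mL APC-streptavidin for 30 min on ice. APC/Cy5 median fluorescence was read by flow cytometry and IC50 derived by 4PL fit.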
In the case of `CC(C)C[C@@H]1NC(=O)[C@H](Cc2ccc(NC(=O)CF)cc2)NC(=O)[C@H](CC(=O)O)NC(=O)[C@H]2CCCN2C(=O)[C@H](CCC(=O)O)NC(=O)[C@@H](NC(=O)[C@H](Cc2ccc(O)cc2)NC(=O)[C@@H](NC(=O)CN2CCC(NC(=O)CN3CCN(CC(=O)O)CCN(CC(=O)O)CCN(CC(=O)O)CC3)CC2)C(C)C)CSCc2cccc(c2)CSC[C@@H](C(N)=O)NC(=O)[C@H](CO)NC(=O)[C@H](Cc2c[nH]c3ccccc23)NC(=O)[C@H]([C@@H](C)O)NC1=O` [3BP-4358] ({DOTA}-[X2]VYCE[dP]D[Phe(4-NH2)](Fluoroacetyl)LTWSC-NH2; linker 4-13 via mXylylene), the IC50 is reported as 100 to 794 nM.

Same assay, conditions: FACS binding assay, HT-29 cells, competition with tracer 3BP-2776 (10 nM, biotin-labeled), 4° C., 1 hour; read-out: pIC50 category (activity) (converted)
In the case of `C[C@@H](O)[C@@H]1NC(=O)[C@H](CC(C)(C)C)NC(=O)[C@H](Cc2cccc(NC(=O)CCCS(N)(=O)=O)c2)NC(=O)[C@H](CC(=O)O)NC(=O)[C@H]2CCCN2C(=O)[C@H](CCC(=O)O)NC(=O)[C@@H](NC(=O)[C@H](Cc2ccc(O)cc2)NC(=O)CN2CCN(C(=O)CN3CCN(CC(=O)O)CCN(CC(=O)O)CCN(CC(=O)O)CC3)CC2)CSCc2cccc(c2)CSC[C@@H](C(N)=O)NC(=O)[C@H](CO)NC(=O)[C@H](Cc2c[nH]c3ccccc23)NC1=O` [3BP-4449] ({DOTA}-[X1]YCE[dP]D[Phe(3-NHCO(CH2)3SO2NH2)][tBuAla]TWSC-NH2; linker 3-12 via mXylylene), the IC50 is reported as less than 10 nM. `CC(C)C[C@@H]1NC(=O)[C@H](Cc2cccc(NC(=O)CCCS(N)(=O)=O)c2)NC(=O)[C@H](CC(=O)O)NC(=O)[C@H]2CCCN2C(=O)[C@H](CCC(=O)O)NC(=O)[C@@H](NC(=O)[C@H](CO)NC(=O)CN2CCN(C(=O)CN3CCN(CC(=O)O)CCN(CC(=O)O)CCN(CC(=O)O)CC3)CC2)CSCc2cccc(c2)CSC[C@@H](C(N)=O)NC(=O)[C@H](CO)NC(=O)[C@H](Cc2c[nH]c3ccccc23)NC(=O)[C@H]([C@@H](C)O)NC1=O` [3BP-4450] ({DOTA}-[X1]SCE[dP]D[Phe(3-NHCO(CH2)3SO2NH2)]LTWSC-NH2; linker 3-12 via mXylylene) gave an IC50 of less than 10 nM.

Same assay, conditions: FACS binding assay, HT-29 cells, competition with tracer 3BP-4149 (3 nM, Cy5-labeled), 4° C., 1 hour; read-out: pIC50 category (activity) (converted)
With `CC(C)C[C@@H]1NC(=O)[C@H](Cc2c[nH]c3ccccc23)NC(=O)[C@H](CCC(=O)NCc2ccc(C(N)=O)cc2)NC(=O)[C@H]2CCCN2C(=O)[C@H](CCC(=O)O)NC(=O)[C@@H](NC(=O)[C@H](Cc2ccc(O)cc2)NC(=O)[C@@H](NC(=O)CN2CCC(NC(=O)CN3CCN(CC(=O)O)CCN(CC(=O)O)CCN(CC(=O)O)CC3)CC2)C(C)C)CSCc2cccc(c2)CSC[C@@H](C(N)=O)NC(=O)[C@H](CO)NC(=O)[C@H](Cc2c[nH]c3ccccc23)NC(=O)[C@H]([C@@H](C)O)NC1=O` [3BP-4345] ({DOTA}-[X2]VYCE[dP]E([4Amb-NH2])WLTWSC-NH2; linker 4-13 via mXylylene) the IC50 was 10 to 79.4 nM. In the case of `CCC(=O)Nc1ccc(C[C@@H]2NC(=O)[C@H](CC(=O)O)NC(=O)[C@H]3CCCN3C(=O)[C@H](CCC(=O)O)NC(=O)[C@@H](NC(=O)[C@H](Cc3ccc(O)cc3)NC(=O)[C@@H](NC(=O)CN3CCC(NC(=O)CN4CCN(CC(=O)O)CCN(CC(=O)O)CCN(CC(=O)O)CC4)CC3)C(C)C)CSCc3cccc(c3)CSC[C@@H](C(N)=O)NC(=O)[C@H](CO)NC(=O)[C@H](Cc3c[nH]c4ccccc34)NC(=O)[C@H]([C@@H](C)O)NC(=O)[C@H](CC(C)C)NC2=O)cc1` [3BP-4347] ({DOTA}-[X2]VYCE[dP]D[Phe(4-NH2)](Propionyl)LTWSC-NH2; linker 4-13 via mXylylene), the IC50 is reported as 100 to 794 nM. For `CC(C)CC(=O)Nc1ccc(C[C@@H]2NC(=O)[C@H](CC(=O)O)NC(=O)[C@H]3CCCN3C(=O)[C@H](CCC(=O)O)NC(=O)[C@@H](NC(=O)[C@H](Cc3ccc(O)cc3)NC(=O)[C@@H](NC(=O)CN3CCC(NC(=O)CN4CCN(CC(=O)O)CCN(CC(=O)O)CCN(CC(=O)O)CC4)CC3)C(C)C)CSCc3cccc(c3)CSC[C@@H](C(N)=O)NC(=O)[C@H](CO)NC(=O)[C@H](Cc3c[nH]c4ccccc34)NC(=O)[C@H]([C@@H](C)O)NC(=O)[C@H](CC(C)C)NC2=O)cc1` [3BP-4348] ({DOTA}-[X2]VYCE[dP]D[Phe(4-NH2)](Isovaleryl)LTWSC-NH2; linker 4-13 via mXylylene), the IC50 was 100 to 794 nM. Work on `CC(C)C[C@@H]1NC(=O)[C@H](Cc2ccc(NC(=O)C3(C#N)CC3)cc2)NC(=O)[C@H](CC(=O)O)NC(=O)[C@H]2CCCN2C(=O)[C@H](CCC(=O)O)NC(=O)[C@@H](NC(=O)[C@H](Cc2ccc(O)cc2)NC(=O)[C@@H](NC(=O)CN2CCC(NC(=O)CN3CCN(CC(=O)O)CCN(CC(=O)O)CCN(CC(=O)O)CC3)CC2)C(C)C)CSCc2cccc(c2)CSC[C@@H](C(N)=O)NC(=O)[C@H](CO)NC(=O)[C@H](Cc2c[nH]c3ccccc23)NC(=O)[C@H]([C@@H](C)O)NC1=O` [3BP-4357] ({DOTA}-[X2]VYCE[dP]D[Phe(4-NH2)](Cyclopropanecarbonyl(1-CN))LTWSC-NH2; linker 4-13 via mXylylene) yielded an IC50 of 100 to 794 nM. `CC(C)C[C@@H]1NC(=O)[C@H](Cc2ccc(NC(=O)CS(C)(=O)=O)cc2)NC(=O)[C@H](CC(=O)O)NC(=O)[C@H]2CCCN2C(=O)[C@H](CCC(=O)O)NC(=O)[C@@H](NC(=O)[C@H](Cc2ccc(O)cc2)NC(=O)[C@@H](NC(=O)CN2CCC(NC(=O)CN3CCN(CC(=O)O)CCN(CC(=O)O)CCN(CC(=O)O)CC3)CC2)C(C)C)CSCc2cccc(c2)CSC[C@@H](C(N)=O)NC(=O)[C@H](CO)NC(=O)[C@H](Cc2c[nH]c3ccccc23)NC(=O)[C@H]([C@@H](C)O)NC1=O` [3BP-4360] ({DOTA}-[X2]VYCE[dP]D[Phe(4-NH2)](X67)LTWSC-NH2; linker 4-13 via mXylylene) was tested, and the IC50 was 100 to 794 nM. For `CC(C)C[C@@H]1NC(=O)[C@H](Cc2cccc(NC(=O)Cn3ccccc3=O)c2)NC(=O)[C@H](CC(=O)O)NC(=O)[C@H]2CCCN2C(=O)[C@H](CCC(=O)O)NC(=O)[C@@H](NC(=O)[C@H](Cc2ccc(O)cc2)NC(=O)[C@@H](NC(=O)CN2CCC(NC(=O)CN3CCN(CC(=O)O)CCN(CC(=O)O)CCN(CC(=O)O)CC3)CC2)C(C)C)CSCc2cccc(c2)CSC[C@@H](C(N)=O)NC(=O)[C@H](CO)NC(=O)[C@H](Cc2c[nH]c3ccccc23)NC(=O)[C@H]([C@@H](C)O)NC1=O` [3BP-4370] ({DOTA}-[X2]VYCE[dP]D[X57]LTWSC-NH2; linker 4-13 via mXylylene), the IC50 was 10 to 79.4 nM. `CC(C)C[C@@H]1NC(=O)[C@H](Cc2c[nH]c3ccccc23)NC(=O)[C@H](CCC(=O)NC2CN(c3ccc(C(N)=O)cc3)C2)NC(=O)[C@H]2CCCN2C(=O)[C@H](CCC(=O)O)NC(=O)[C@@H](NC(=O)[C@H](Cc2ccc(O)cc2)NC(=O)[C@@H](NC(=O)CN2CCC(NC(=O)CN3CCN(CC(=O)O)CCN(CC(=O)O)CCN(CC(=O)O)CC3)CC2)C(C)C)CSCc2cccc(c2)CSC[C@@H](C(N)=O)NC(=O)[C@H](CO)NC(=O)[C@H](Cc2c[nH]c3ccccc23)NC(=O)[C@H]([C@@H](C)O)NC1=O` [3BP-4388] ({DOTA}-[X2]VYCE[dP]E(X60)WLTWSC-NH2; linker 4-13 via mXylylene) showed an IC50 of 10 to 79.4 nM. For `CC(C)C[C@@H]1NC(=O)[C@H](Cc2c[nH]c3ccccc23)NC(=O)[C@H](CCC(=O)N2CCCN(c3ccc(C#N)cc3F)CC2)NC(=O)[C@H]2CCCN2C(=O)[C@H](CCC(=O)O)NC(=O)[C@@H](NC(=O)[C@H](Cc2ccc(O)cc2)NC(=O)[C@@H](NC(=O)CN2CCC(NC(=O)CN3CCN(CC(=O)O)CCN(CC(=O)O)CCN(CC(=O)O)CC3)CC2)C(C)C)CSCc2cccc(c2)CSC[C@@H](C(N)=O)NC(=O)[C@H](CO)NC(=O)[C@H](Cc2c[nH]c3ccccc23)NC(=O)[C@H]([C@@H](C)O)NC1=O` [3BP-4389] ({DOTA}-[X2]VYCE[dP]E(X49)WLTWSC-NH2; linker 4-13 via mXylylene), the IC50 was 10 to 79.4 nM. Molecule `Cc1cc2cc(CNC(=O)CC[C@@H]3NC(=O)[C@H]4CCCN4C(=O)[C@H](CCC(=O)O)NC(=O)[C@@H](NC(=O)[C@H](Cc4ccc(O)cc4)NC(=O)[C@@H](NC(=O)CN4CCC(NC(=O)CN5CCN(CC(=O)O)CCN(CC(=O)O)CCN(CC(=O)O)CC5)CC4)C(C)C)CSCc4cccc(c4)CSC[C@@H](C(N)=O)NC(=O)[C@H](CO)NC(=O)[C@H](Cc4c[nH]c5ccccc45)NC(=O)[C@H]([C@@H](C)O)NC(=O)[C@H](CC(C)C)NC(=O)[C@H](Cc4c[nH]c5ccccc45)NC3=O)ccc2[nH]c1=O` [3BP-4390] ({DOTA}-[X2]VYCE[dP]E(X53)WLTWSC-NH2; linker 4-13 via mXylylene) has an IC50 of 10 to 79.4 nM. In the case of `CC(C)C[C@@H]1NC(=O)[C@H](Cc2ccc(NC(=O)c3ccc(CS(N)(=O)=O)cc3)cc2)NC(=O)[C@H](CC(=O)O)NC(=O)[C@H]2CCCN2C(=O)[C@H](CCC(=O)O)NC(=O)[C@@H](NC(=O)[C@H](Cc2ccc(O)cc2)NC(=O)[C@@H](NC(=O)CN2CCC(NC(=O)CN3CCN(CC(=O)O)CCN(CC(=O)O)CCN(CC(=O)O)CC3)CC2)C(C)C)CSCc2cccc(c2)CSC[C@@H](C(N)=O)NC(=O)[C@H](CO)NC(=O)[C@H](Cc2c[nH]c3ccccc23)NC(=O)[C@H]([C@@H](C)O)NC1=O` [3BP-4399] ({DOTA}-[X2]VYCE[dP]D[Phe(4-NH2)](X36)LTWSC-NH2; linker 4-13 via mXylylene), the IC50 is reported as 10 to 79.4 nM. `CC(C)C[C@@H]1NC(=O)[C@H](Cc2cccc(NC(=O)c3ccc4c(c3)S(=O)(=O)NC(=O)N4)c2)NC(=O)[C@H](CC(=O)O)NC(=O)[C@H]2CCCN2C(=O)[C@H](CCC(=O)O)NC(=O)[C@@H](NC(=O)[C@H](Cc2ccc(O)cc2)NC(=O)[C@@H](NC(=O)CN2CCC(NC(=O)CN3CCN(CC(=O)O)CCN(CC(=O)O)CCN(CC(=O)O)CC3)CC2)C(C)C)CSCc2cccc(c2)CSC[C@@H](C(N)=O)NC(=O)[C@H](CO)NC(=O)[C@H](Cc2c[nH]c3ccccc23)NC(=O)[C@H]([C@@H](C)O)NC1=O` [3BP-4415] ({DOTA}-[X2]VYCE[dP]D[X7](X55)LTWSC-NH2; linker 4-13 via mXylylene) was tested, and the IC50 was 100 to 794 nM.
